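Where inhibition never reached the appropriate level, the endpoint shown equals the highest concentration tested. Otherwise, values were interpolated linearly from a five-concentration, 48-hour dose response in 96-well plates. Abbreviation: GI50, concentration required for 50% inhibition of growth. TGI marks complete inhibition of growth.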
Assays:
Assay in all cases: inhibition of tumour cell growth, NCI panel, 48 h
BT-549 breast = test system: BT-549 breast
CAKI-1 renal = test system: CAKI-1 renal
K-562 leukemia = test system: K-562 leukemia
M14 melanoma = test system: M14 melanoma
RPMI-8226 leukemia = test system: RPMI-8226 leukemia
HCT-116 colon = test system: HCT-116 colon
SF-539 CNS = test system: SF-539 CNS
NCI-H23 lung = test system: NCI-H23 lung
SR leukemia = test system: SR leukemia
SK-MEL-28 melanoma = test system: SK-MEL-28 melanoma
HCC-2998 colon = test system: HCC-2998 colon
SNB-75 CNS = test system: SNB-75 CNS
SK-MEL-2 melanoma = test system: SK-MEL-2 melanoma
OVCAR-8 ovarian = test system: OVCAR-8 ovarian
CCRF-CEM leukemia = test system: CCRF-CEM leukemia
SN12C renal = test system: SN12C renal
UACC-62 melanoma = test system: UACC-62 melanoma
UO-31 renal = test system: UO-31 renal
TK-10 renal = test system: TK-10 renal
DU-145 prostate = test system: DU-145 prostate
HS 578T breast = test system: HS 578T breast
MDA-MB-435 = test system: MDA-MB-435
MOLT-4 leukemia = test system: MOLT-4 leukemia
SF-268 CNS = test system: SF-268 CNS
MALME-3M melanoma = test system: MALME-3M melanoma
MDA-MB-231 breast = test system: MDA-MB-231 breast
HCT-15 colon = test system: HCT-15 colon
NCI/ADR-RES ovarian = test system: NCI/ADR-RES ovarian
SNB-19 CNS = test system: SNB-19 CNS
SF-295 CNS = test system: SF-295 CNS
SK-MEL-5 melanoma = test system: SK-MEL-5 melanoma
A498 renal = test system: A498 renal
NCI-H226 lung = test system: NCI-H226 lung
786-0 renal = test system: 786-0 renal
IGROV1 ovarian = test system: IGROV1 ovarian
MCF7 breast = test system: MCF7 breast
EKVX NSCLC = test system: EKVX NSCLC
LOX IMVI melanoma = test system: LOX IMVI melanoma
SK-OV-3 ovarian = test system: SK-OV-3 ovarian
HL-60(TB) leukemia = test system: HL-60(TB) leukemia
ACHN renal = test system: ACHN renal
HOP-92 NSCLC = test system: HOP-92 NSCLC
OVCAR-5 ovarian = test system: OVCAR-5 ovarian
OVCAR-3 ovarian = test system: OVCAR-3 ovarian
MDA-MB-468 breast = test system: MDA-MB-468 breast
COLO 205 colon = test system: COLO 205 colon

`Cn1cc(-c2cc3nc(-c4c[nH]c5ccccc45)cc(N)n3n2)c2ccccc21` showed a GI50 (BT-549 breast) of 12.4 µM, a TGI (BT-549 breast) of 54.4 µM and a GI50 (CAKI-1 renal) of 1.68 µM. For the same molecule, the TGI (CAKI-1 renal) was 3.31 µM, the GI50 (K-562 leukemia) was 1.74 µM and the TGI (K-562 leukemia) was 3.54 µM. For the same molecule, the GI50 (M14 melanoma) was 1.75 µM, the TGI (M14 melanoma) was 3.34 µM and the GI50 (RPMI-8226 leukemia) was 2.11 µM. It also gave a TGI (RPMI-8226 leukemia) of 5.07 µM, a GI50 (HCT-116 colon) of 1.8 µM and a TGI (HCT-116 colon) of 3.3 µM. For the same molecule, the GI50 (SF-539 CNS) was 1.75 µM, the TGI (SF-539 CNS) was 3.13 µM and the GI50 (NCI-H23 lung) was 1.75 µM. For the same molecule, the TGI (NCI-H23 lung) was 3.32 µM, the GI50 (SR leukemia) was 1.95 µM and the TGI (SR leukemia) was 5.9 µM. The GI50 (SK-MEL-28 melanoma) was 1.74 µM, the TGI (SK-MEL-28 melanoma) was 3.18 µM and the GI50 (HCC-2998 colon) was 1.65 µM. For the same molecule, the TGI (HCC-2998 colon) was 3.06 µM, the GI50 (SNB-75 CNS) was 1.74 µM and the TGI (SNB-75 CNS) was 3.93 µM. It also gave a GI50 (SK-MEL-2 melanoma) of 1.87 µM, a TGI (SK-MEL-2 melanoma) of 3.73 µM and a GI50 (OVCAR-8 ovarian) of 1.9 µM. The TGI (OVCAR-8 ovarian) was 3.97 µM, the GI50 (CCRF-CEM leukemia) was 1.95 µM and the TGI (CCRF-CEM leukemia) was 4.2 µM. It also gave a GI50 (SN12C renal) of 1.87 µM, a TGI (SN12C renal) of 3.49 µM and a GI50 (UACC-62 melanoma) of 1.64 µM. For the same molecule, the TGI (UACC-62 melanoma) was 3.06 µM, the GI50 (UO-31 renal) was 1.54 µM and the TGI (UO-31 renal) was 2.93 µM. It also gave a GI50 (TK-10 renal) of 1.77 µM, a TGI (TK-10 renal) of 4.65 µM and a GI50 (DU-145 prostate) of 2.04 µM. The TGI (DU-145 prostate) was 4.73 µM, the GI50 (HS 578T breast) was 2.55 µM and the TGI (HS 578T breast) was 6.28 µM. For the same molecule, the GI50 (MDA-MB-435) was 1.78 µM, the TGI (MDA-MB-435) was 3.46 µM and the GI50 (MOLT-4 leukemia) was 1.77 µM. For the same molecule, the TGI (MOLT-4 leukemia) was 3.92 µM, the GI50 (SF-268 CNS) was 2.4 µM and the TGI (SF-268 CNS) was 7.17 µM. The GI50 (MALME-3M melanoma) was 1.87 µM, the TGI (MALME-3M melanoma) was 3.37 µM and the GI50 (MDA-MB-231 breast) was 1.94 µM. The TGI (MDA-MB-231 breast) was 3.35 µM, the GI50 (HCT-15 colon) was 1.6 µM and the TGI (HCT-15 colon) was 3.01 µM. The GI50 (NCI/ADR-RES ovarian) was 1.78 µM, the TGI (NCI/ADR-RES ovarian) was 3.41 µM and the GI50 (SNB-19 CNS) was 3.43 µM. For the same molecule, the TGI (SNB-19 CNS) was 17.3 µM, the GI50 (SF-295 CNS) was 1.64 µM and the TGI (SF-295 CNS) was 3.19 µM. The GI50 (SK-MEL-5 melanoma) was 1.95 µM, the TGI (SK-MEL-5 melanoma) was 4.1 µM and the GI50 (A498 renal) was 19.7 µM. It also gave a TGI (A498 renal) of 44.6 µM, a GI50 (NCI-H226 lung) of 2.2 µM and a TGI (NCI-H226 lung) of 4.98 µM. For the same molecule, the GI50 (786-0 renal) was 1.51 µM, the TGI (786-0 renal) was 2.94 µM and the GI50 (IGROV1 ovarian) was 1.77 µM. For the same molecule, the TGI (IGROV1 ovarian) was 3.26 µM, the GI50 (MCF7 breast) was 1.68 µM and the TGI (MCF7 breast) was 3.39 µM. The GI50 (EKVX NSCLC) was 1.65 µM, the TGI (EKVX NSCLC) was 3.16 µM and the GI50 (LOX IMVI melanoma) was 1.86 µM. For the same molecule, the TGI (LOX IMVI melanoma) was 3.35 µM, the GI50 (SK-OV-3 ovarian) was 10.5 µM and the TGI (SK-OV-3 ovarian) was 46.8 µM. The GI50 (HL-60(TB) leukemia) was 1.5 µM, the TGI (HL-60(TB) leukemia) was 3.22 µM and the GI50 (ACHN renal) was 1.76 µM. For the same molecule, the TGI (ACHN renal) was 3.22 µM, the GI50 (HOP-92 NSCLC) was 1.94 µM and the TGI (HOP-92 NSCLC) was 3.75 µM. For the same molecule, the GI50 (OVCAR-5 ovarian) was 1.82 µM, the TGI (OVCAR-5 ovarian) was 3.3 µM and the GI50 (OVCAR-3 ovarian) was 1.74 µM. The TGI (OVCAR-3 ovarian) was 3.4 µM, the GI50 (MDA-MB-468 breast) was 1.55 µM and the TGI (MDA-MB-468 breast) was 2.93 µM. It also gave a GI50 (COLO 205 colon) of 1.75 µM and a TGI (COLO 205 colon) of 3.29 µM.
